Series [1] can be described thus: Molar enthalpy of transition or fusion. The following applies: DSC.
The conditions of series [2]: DTA.

Each structure is given as a SMILES string. Numbers after ± are expanded uncertainties.

Take `CCCCCCCCCCC(=O)[O-].[Li+]` [lithium undecanoate]: the “Molar enthalpy of transition or fusion” value came to 6.76 ± 0.43 kcal/mol in series [1] (Crystal 1) and 3.3 ± 0.21 kcal/mol in series [1] (Crystal 2). Also, in series [2] (Crystal 1), the Normal melting temperature was 235.50 ± 0.7 °C. Besides, the Triple point temperature in series [2] (Crystal 2) was found to be 364.55 ± 0.7 K.

Regarding `O=C[O-].[Li+]` [lithium methanoate], the “Molar enthalpy of transition or fusion” value was found to be 3.84 ± 0.239 kcal/mol in series [1] (Crystal 1) and 0.451 ± 0.043 kcal/mol in series [1] (Crystal 2). For the same compound, the Normal melting temperature in series [2] (Crystal 1) worked out at 272.20 ± 0.7 °C. In series [2] (Crystal 2), the Triple point temperature stood at 508.55 ± 0.7 K.

Consider `CCCCCCCCCCCC(=O)[O-].[Li+]` [lithium dodecanoate], for which the “Molar enthalpy of transition or fusion” value in series [1] (Crystal 1) is 6.78 ± 0.43 kcal/mol; in series [1] (Crystal 2), 1.66 ± 0.112 kcal/mol; in series [1] (Crystal 3), 0.138 ± 0.0335 kcal/mol. The Normal melting temperature in series [2] (Crystal 1) is 227.40 ± 0.7 °C. For the same compound, the Triple point temperature is reported as 346.05 ± 0.7 K in series [2] (Crystal 2) and 314.45 ± 0.7 K in series [2] (Crystal 3).

On to `CCCCCCCC(=O)[O-].[Li+]` [lithium octanoate], for which the “Molar enthalpy of transition or fusion” value in series [1] (Crystal) came out at 5.73 ± 0.359 kcal/mol. Besides, the Normal melting temperature in series [2] (Crystal) worked out at 264.30 ± 0.7 °C.

Regarding `CCCCCCC(=O)[O-].[Li+]` [lithium heptanoate], the “Molar enthalpy of transition or fusion” value in series [1] (Crystal 1) amounted to 5.93 ± 0.382 kcal/mol; in series [1] (Crystal 2), 1.49 ± 0.1 kcal/mol. Also, in series [2] (Crystal 1), the Normal melting temperature was determined as 274.40 ± 0.7 °C. The Triple point temperature in series [2] (Crystal 2) was 316.55 ± 0.7 K.

On to `CCCCCCCCC(=O)[O-].[Li+]` [lithium nonanoate], for which the “Molar enthalpy of transition or fusion” value in series [1] (Crystal 1) was found to be 6.13 ± 0.382 kcal/mol; in series [1] (Crystal 2) it was 1.92 ± 0.129 kcal/mol. In addition, the Normal melting temperature in series [2] (Crystal 1) worked out at 251.10 ± 0.7 °C. The Triple point temperature in series [2] (Crystal 2) was 348.95 ± 0.7 K.

With `CCC(=O)[O-].[Li+]` [propionic acid, lithium salt], the “Molar enthalpy of transition or fusion” value in series [1] (Crystal 1) was 3.81 ± 0.239 kcal/mol; in series [1] (Crystal 2), 0.817 ± 0.0645 kcal/mol. Further, the Normal melting temperature in series [2] (Crystal 1) turned out to be 331.00 ± 0.7 °C. Also, the Triple point temperature in series [2] (Crystal 2) worked out at 530.55 ± 0.7 K.

As for `CCCCCC(=O)[O-].[Li+]` [lithium hexanoate], in series [1] (Crystal), the “Molar enthalpy of transition or fusion” value stood at 5.49 ± 0.359 kcal/mol. The Normal melting temperature in series [2] (Crystal) was 287.20 ± 0.7 °C.

Regarding `CCCCC(=O)[O-].[Li+]` [lithium pentanoate], the “Molar enthalpy of transition or fusion” value is 5.25 ± 0.335 kcal/mol in series [1] (Crystal 1) and 0.941 ± 0.0693 kcal/mol in series [1] (Crystal 2). In addition, the Normal melting temperature in series [2] (Crystal 1) came out at 301.10 ± 0.7 °C. For the same compound, in series [2] (Crystal 2), the Triple point temperature was 323.45 ± 0.7 K.

On to `CC(=O)[O-].[Li+]` [lithium acetate], for which the “Molar enthalpy of transition or fusion” value in series [1] (Crystal) was 2.87 ± 0.186 kcal/mol. Besides, the Normal melting temperature in series [2] (Crystal) worked out at 283.10 ± 0.7 °C.

With `CCCC(=O)[O-].[Li+]` [lithium butanoate], the “Molar enthalpy of transition or fusion” value in series [1] (Crystal) came out at 4.96 ± 0.311 kcal/mol. Further, the Normal melting temperature in series [2] (Crystal) is 316.80 ± 0.7 °C.

For the compound `CCCCCCCCCC(=O)[O-].[Li+]` [lithium decanoate], the “Molar enthalpy of transition or fusion” value in series [1] (Crystal 2) was 0.111 ± 0.0287 kcal/mol. Moreover, the Triple point temperature in series [2] (Crystal 2) is 309.65 ± 0.7 K.

For the origin of these results see the NIST ThermoML archive (doi:10.1021/je400054m).
